Source: patent US20170283440A1, “CARM1 INHIBITORS AND USES THEREOF” (Epizyme, Inc., priority 2014, published 2017)

Target: T1, Human CARM1 (PRMT4) (Homo sapiens, UniProt Q86X55)
T1 construct: Flag-CARM1-His was eluted with 200 ug/ml FLAG peptide in buffer A; made in house; host or cells: HEK 293F cells infected with recombinant baculovirus (pFastBacMam)
Test: CARM1 enzyme assay on peptide substrate (3H-SAM Flashplate)
Format: biochemical
Conditions: CARM1 0.25 nM, 3H-SAM 30 nM, peptide 250 nM; read-out: Biochem IC50
Procedure, shortened: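 Flag-CARM1-His (isoform 1, Δ539-561; HEK293F-expressed), 0.25 nM, preincubated 30 min RT with compound, then 30 nM 3H-SAM and 250 nM biotinylated H3(16-30) R26me1 peptide in pH 7.6 Bicine buffer, 2% DMSO. Stopped with 300 uM cold SAM; streptavidin Flashplate capture, cpm. % inhibition vs DMSO/1 mM SAH, 3- or 4-parameter fit.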

T1 sequence (Q86X55 other isoform, or with tags, fused parts or gaps): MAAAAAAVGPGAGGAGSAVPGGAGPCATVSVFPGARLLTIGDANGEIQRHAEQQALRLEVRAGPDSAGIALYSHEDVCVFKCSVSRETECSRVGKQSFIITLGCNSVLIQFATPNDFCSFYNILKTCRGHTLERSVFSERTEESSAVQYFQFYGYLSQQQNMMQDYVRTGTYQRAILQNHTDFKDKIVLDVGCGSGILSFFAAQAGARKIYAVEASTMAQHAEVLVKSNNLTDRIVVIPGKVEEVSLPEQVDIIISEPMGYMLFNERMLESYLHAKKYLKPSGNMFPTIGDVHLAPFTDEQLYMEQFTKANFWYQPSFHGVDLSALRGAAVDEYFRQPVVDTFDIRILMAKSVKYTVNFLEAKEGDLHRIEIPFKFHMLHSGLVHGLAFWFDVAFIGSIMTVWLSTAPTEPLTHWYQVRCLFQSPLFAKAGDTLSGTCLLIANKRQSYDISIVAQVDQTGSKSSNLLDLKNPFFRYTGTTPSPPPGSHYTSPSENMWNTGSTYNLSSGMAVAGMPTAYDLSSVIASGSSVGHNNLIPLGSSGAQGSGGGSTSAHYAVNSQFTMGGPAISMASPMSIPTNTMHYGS

Row | Compound | IC50 [µM]
1 | NCC(O)COc1cccc(-c2nc(N3C4CCC3COC4)c3cnn(C4CC4)c3n2)c1 (stereo not drawn) [Example 17-5] | < 0.1
2 | CNCC(O)COc1cc(OC)cc(-c2cc(NC3CCOCC3)c3c(C)nn(C(C)C)c3n2)c1 (stereo not drawn) [Example 20-4] | < 0.1
3 | CNCC(O)COc1cc(Cl)cc(-c2cc(N3CC(CO)(CCl)C3)n3ncc(C(C)C)c3n2)c1 (stereo not drawn) [Example 53-6] | < 0.1
4 | CNCC(O)COc1cc(Cl)cc(-c2cc(-c3cc[nH]n3)nc3c(C(C)C)cnn23)c1 (stereo not drawn) [Example 2-7] | < 0.1
5 | CNCC(O)COc1cc(Cl)cc(-c2cc(N3CCOC3=O)n3ncc(C(C)C)c3n2)c1 (stereo not drawn) [Example 26-6] | 0.1 to 1
6 | CNCC(O)COc1cc(OC)cc(-c2cc(N3[C@@H]4CC[C@@H]3COC4)c3cnn(C(C)C)c3n2)c1 (stereo partly drawn) [Example 17-4] | < 0.1
7 | C=Cc1cc(OCC(O)CNC)cc(-c2cc(NC3CCOCC3)n3ncc(C(C)C)c3n2)c1 (stereo not drawn) [Example 33-6] | 0.1 to 1
8 | C#Cc1cc(OCC(O)CNC)cc(-c2cc(N3CCOCC3)n3ncc(C(C)C)c3n2)c1 (stereo not drawn) [Example 15-6] | < 0.1
9 | COc1cc(OCC(O)CN)cc(-c2cc(N(C3CCOCC3)C3CC3)n3ncc(C(C)C)c3n2)c1 (stereo not drawn) [Example 13-8] | 0.1 to 1
10 | CNCC(O)COc1cc(OC(C)C)cc(-c2cc(N3CCOCC3)c3cnn(C(C)C)c3n2)c1 (stereo not drawn) [Example 21-4] | < 0.1
11 | CNCC(O)COc1cccc(-c2cc(N3CCOCC3)c3c(C)nn(C(C)C)c3n2)c1 (stereo not drawn) [Example 3-2] | < 0.1
12 | CNCC(O)COc1cc(-c2cc(N3CCOCC3)n3ncc(C(C)C)c3n2)cc(C2CC2)c1 (stereo not drawn) [Example 3-6] | < 0.1

Next, values leading:

Row | IC50 [µM] | Compound
13 | 0.1 to 1 | CC(C)n1ncc2c(N3CCOCC3)cc(-c3cccc(NCC(O)CN)c3)nc21 (stereo not drawn) [Example 28-9]
14 | < 0.1 | CC(C)c1cnn2c(N3CCOCC3)cc(-c3cccc(OC[C@H](O)CN)c3)nc12 [Example 10-8]
15 | < 0.1 | NCC(O)COc1cccc(-c2nc(NCc3cccc4ccnn34)c3cnn(C4CC4)c3n2)c1 (stereo not drawn) [Example 37-5]
16 | 0.1 to 1 | CNCC(O)COc1cccc(-c2nc(NCc3ccncc3)c3cnn(C4CC4)c3n2)c1 (stereo not drawn) [Example 21-5]
17 | < 0.1 | CNCC(O)COc1cccc(-c2nc(NC3CCOC3)c3cnn(C(C)C)c3n2)c1 (stereo not drawn) [Example 10-5]
18 | 0.1 to 1 | Cc1cc(C)c(CNc2nc(-c3cccc(OCC(O)CN)c3)nc3c2cnn3C2CC2)c(=O)[nH]1 (stereo not drawn) [Example 38-5]
19 | 0.1 to 1 | CNCC(O)COc1cccc(-c2nc(NCc3cc(C)on3)c3cnn(C4CC4)c3n2)c1 (stereo not drawn) [Example 19-9]
20 | 0.1 to 1 | CNCC(O)COc1cccc(-c2nc(NCc3nccs3)c3cnn(C4CC4)c3n2)c1 (stereo not drawn) [Example 8-9]
21 | < 0.1 | CNCC(O)COc1cccc(-c2cc(NC3CCOCC3)c3c(C4CC4)nn(C(C)C)c3n2)c1 (stereo not drawn) [Example 2-2]
22 | 0.1 to 1 | CNCC(O)COc1cccc(-c2nc(NCc3cccc[n+]3[O-])c3cnn(C4CC4)c3n2)c1 (stereo not drawn) [Example 31-5]
23 | < 0.1 | CNCC(O)COc1cccc(-c2nc(NCc3cn4ccsc4n3)c3cnn(C4CC4)c3n2)c1 (stereo not drawn) [Example 43-5]
24 | 0.1 to 1 | CNCC(O)COc1cccc(-c2nc(NCc3ccccn3)c3cnn(C4CC4)c3n2)c1 (stereo not drawn) [Example 22-5]

Test system: asymmetric di-methyl PABP1 in RKO cells
Test: RKO methylation assay (In Cell Western for asymmetric di-methyl PABP1)
Format: cell-based
Conditions: Homo sapiens, 48 hours incubation, read-out: Cellular IC50
Procedure, shortened: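 RKO cells treated 48 h at 37 °C, then fixed, methanol-permeabilized and probed for asymmetric di-methyl PABP1 (16 h, 4 °C) with DRAQ5 counterstain; 800/700 nm intensity ratio read.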

Row | Compound | IC50 [µM]
25 | NCC(O)COc1cccc(-c2nc(N3C4CCC3COC4)c3cnn(C4CC4)c3n2)c1 (stereo not drawn) [Example 17-5] | > 20
26 | CNCC(O)COc1cc(OC)cc(-c2cc(NC3CCOCC3)c3c(C)nn(C(C)C)c3n2)c1 (stereo not drawn) [Example 20-4] | 10 to 20
27 | CNCC(O)COc1cc(Cl)cc(-c2cc(N3CC(CO)(CCl)C3)n3ncc(C(C)C)c3n2)c1 (stereo not drawn) [Example 53-6] | > 20
28 | CNCC(O)COc1cc(Cl)cc(-c2cc(-c3cc[nH]n3)nc3c(C(C)C)cnn23)c1 (stereo not drawn) [Example 2-7] | > 20
29 | CNCC(O)COc1cc(Cl)cc(-c2cc(N3CCOC3=O)n3ncc(C(C)C)c3n2)c1 (stereo not drawn) [Example 26-6] | > 20
30 | CNCC(O)COc1cc(OC)cc(-c2cc(N3[C@@H]4CC[C@@H]3COC4)c3cnn(C(C)C)c3n2)c1 (stereo partly drawn) [Example 17-4] | 10 to 20
31 | C=Cc1cc(OCC(O)CNC)cc(-c2cc(NC3CCOCC3)n3ncc(C(C)C)c3n2)c1 (stereo not drawn) [Example 33-6] | > 20
32 | C#Cc1cc(OCC(O)CNC)cc(-c2cc(N3CCOCC3)n3ncc(C(C)C)c3n2)c1 (stereo not drawn) [Example 15-6] | > 20
33 | COc1cc(OCC(O)CN)cc(-c2cc(N(C3CCOCC3)C3CC3)n3ncc(C(C)C)c3n2)c1 (stereo not drawn) [Example 13-8] | > 20
34 | CNCC(O)COc1cc(OC(C)C)cc(-c2cc(N3CCOCC3)c3cnn(C(C)C)c3n2)c1 (stereo not drawn) [Example 21-4] | > 20
35 | CNCC(O)COc1cccc(-c2cc(N3CCOCC3)c3c(C)nn(C(C)C)c3n2)c1 (stereo not drawn) [Example 3-2] | 10 to 20
36 | CNCC(O)COc1cc(-c2cc(N3CCOCC3)n3ncc(C(C)C)c3n2)cc(C2CC2)c1 (stereo not drawn) [Example 3-6] | > 20

Now from value to compound:

Row | IC50 [µM] | Compound
37 | > 20 | CC(C)n1ncc2c(N3CCOCC3)cc(-c3cccc(NCC(O)CN)c3)nc21 (stereo not drawn) [Example 28-9]
38 | > 20 | CC(C)c1cnn2c(N3CCOCC3)cc(-c3cccc(OC[C@H](O)CN)c3)nc12 [Example 10-8]
39 | > 20 | NCC(O)COc1cccc(-c2nc(NCc3cccc4ccnn34)c3cnn(C4CC4)c3n2)c1 (stereo not drawn) [Example 37-5]
40 | > 20 | CNCC(O)COc1cccc(-c2nc(NCc3ccncc3)c3cnn(C4CC4)c3n2)c1 (stereo not drawn) [Example 21-5]
41 | 10 to 20 | CNCC(O)COc1cccc(-c2nc(NC3CCOC3)c3cnn(C(C)C)c3n2)c1 (stereo not drawn) [Example 10-5]
42 | > 20 | Cc1cc(C)c(CNc2nc(-c3cccc(OCC(O)CN)c3)nc3c2cnn3C2CC2)c(=O)[nH]1 (stereo not drawn) [Example 38-5]
43 | > 20 | CNCC(O)COc1cccc(-c2nc(NCc3cc(C)on3)c3cnn(C4CC4)c3n2)c1 (stereo not drawn) [Example 19-9]
44 | 10 to 20 | CNCC(O)COc1cccc(-c2nc(NCc3nccs3)c3cnn(C4CC4)c3n2)c1 (stereo not drawn) [Example 8-9]
45 | > 20 | CNCC(O)COc1cccc(-c2cc(NC3CCOCC3)c3c(C4CC4)nn(C(C)C)c3n2)c1 (stereo not drawn) [Example 2-2]
46 | > 20 | CNCC(O)COc1cccc(-c2nc(NCc3cccc[n+]3[O-])c3cnn(C4CC4)c3n2)c1 (stereo not drawn) [Example 31-5]
47 | > 20 | CNCC(O)COc1cccc(-c2nc(NCc3cn4ccsc4n3)c3cnn(C4CC4)c3n2)c1 (stereo not drawn) [Example 43-5]
48 | > 20 | CNCC(O)COc1cccc(-c2nc(NCc3ccccn3)c3cnn(C4CC4)c3n2)c1 (stereo not drawn) [Example 22-5]
